Assay results taken from patent publication US10004702B2, “Linear guanidine derivatives, methods of preparation and uses thereof” (LEAD DISCOVERY SIENA S.R.L., priority 2014, dated 2018).
Values after ≈ are worked out from the molar mass of the structure shown. Read-outs that look alike come from different tables or passages of the source.

Experiments:
[1] = system: Chryseobacterium meningosepticum CCUG 4310; assay: Bactericidal activity (MBC); assay type: cell-based; conditions: Elizabethkingia meningoseptica, CCUG4310
Human Serum Albumin = Human Serum Albumin (Homo sapiens, UniProt P02768); assay: Binding fluorimetric assay (tryptophan quenching); conditions: fixed concentration of HSA titrated with different amounts of compound
Description: The solutions were mixed and after allowing 30 minutes at room temperature to reach the equilibrium conditions, the spectra were recorded. […] The percentages obtained were plotted against the concentrations used and the KD values were calculated using GraphPad software (version 5.0).

[2] = system: Acinetobacter baumannii ATCC 17978; assay: Bactericidal activity (MBC); assay type: cell-based; conditions: ATCC17978
Escherichia coli CCUG^T = assay: Bactericidal activity (MBC); assay type: cell-based
Burkholderia cepacia RII = assay: Bactericidal activity (MBC); assay type: cell-based
[3] = system: Klebsiella pneumoniae ATCC 13833; assay: Bactericidal activity (MBC); assay type: cell-based; conditions: ATCC13833
[4] = system: Klebsiella pneumoniae 081R; assay: Antimicrobial susceptibility testing, MIC by microdilution broth method; assay type: cell-based; conditions: Klebsiella pneumoniae, 081R
Description: (§1) Bacterial strains were obtained from the ATCC or CCUG culture collections or present in the authors' collection of clinical isolates. Compounds were re-suspended in dimethyl sulfoxyde (DMSO) at a final concentration of 10 mg/ml and subsequently diluted in the culture medium. The minimum inhibitory concentrations (MICs) of the compounds of the invention were determined using the microdilution broth method using Mueller-Hinton broth as recommended by the Clinical Laboratory Standards Institute (CLSI [11]). Bacterial inoculum was 5×10^4 CFU/well. MICs were recorded after 18-24 hours incubation at 35-37° C.
(§2) The Antibacterial activity of compound 28 was also tested on a panel of Gram-negative and Gram-positive clinical isolates, showing various antimicrobial susceptibility profiles (Table 4). The class of drugs for which the isolate was resistant to is indicated in column 2 (PEN, penicillins; ES-CEPH, expanded-spectrum cephalosporins; CARB, carbapenems; AZT; aztreonam; AG, aminoglycosides; FQ, fluoroquinolones; SXT, trimethoprim/sulfamethoxazole; FOS, fosfomycin; GLY, glycopeptides; LNZ, linezolid; COL-R, colistin resistant; COL-S colistin sensitive; PDR, poly-drug resistant).

[5] = system: Enterobacter cloacae VA-417/02 (VIM-4); assay: as above; assay type: cell-based; conditions: Enterobacter cloacae, read-out: MIC
Description: as §1, §2

[6] = system: Acinetobacter baumannii AC-54/97 (IMP-2); assay: as above; assay type: cell-based; conditions: Acinetobacter baumannii, read-out: MIC
Description: as §1, §2

Water solubility = assay type: physicochemical; conditions: thermodynamic from solid, room temperature, LC-UV-MS
Description: Solid compound 28 (1.01 mg) was added to 1 mL of water. The sample was shaken in a shaker bath at room temperature for 24 h. The suspension was filtered through a 0.45-μm nylon filter (Acrodisc), and the solubilised compound determined by LC-UV-MS assay. The determination was performed in triplicate. For the quantification was used an LC-UV-MS system consisted of a Varian apparatus (Varian Inc) including a vacuum solvent degassing unit, two pumps (212-LC), a Triple Quadrupole MSD (Mod. 320-LC) mass spectrometer with ES interface and Varian MS Workstation System Control Vers. 6.9 software. Chromatographic separation was obtained using a Pursuit C18 column (50×2.0 mm) (Varian) with 3 μm particle size and gradient elution: eluent A being CH3CN and eluent B consisting of an aqueous solution of formic acid (0.1%).
The flow rate was 0.4 ml/min and injection volume was 20 μL. The instrument operated in positive mode and parameters were: detector 1850 V, drying gas pressure 25.0 psi, desolvation temperature 300.0° C., nebulizing gas 45.0 psi, needle 5000 V and shield 600 V. Nitrogen was used as nebulizer and drying gas. Collision induced dissociation was performed using Argon as the collision gas at a pressure of 1.8 mTorr in the collision cell, the collision energy was set to 149 eV. UV lamp was set to 210 nm. […]

[7] = system: Achromobacter xylosoxidans AX 22; assay: Bactericidal activity (MBC); assay type: cell-based; conditions: AX22
[8] = system: Klebsiella pneumoniae 081R; assay: Bactericidal activity (MBC); assay type: cell-based
[9] = system: Bacillus subtilis ATCC 6633; assay: Bactericidal activity (MBC); assay type: cell-based; conditions: ATCC6633
[10] = system: Staphylococcus haemolyticus SI-6/2011; assay: MIC against resistant clinical isolates; assay type: cell-based; conditions: SI6/2011, resistance profile AG
Description: as §1, §2

[11] = system: Pseudomonas aeruginosa 14X-34; assay: MIC against resistant clinical isolates; assay type: cell-based; conditions: 14X34, resistance profile PDR
Description: as §1, §2

[12] = system: Staphylococcus aureus ATCC 25923; assay: Bactericidal activity (MBC); assay type: cell-based; conditions: ATCC25923
[13] = system: Pseudomonas aeruginosa ATCC 27853; assay: Bactericidal activity (MBC); assay type: cell-based; conditions: ATCC27853
[14] = system: Gram-positive and Gram-negative organisms; assay: Antimicrobial susceptibility testing, overall statements on the panel; assay type: cell-based; conditions: overall comparison over the tested strains
Description: as §1

[15] = system: Stenotrophomonas maltophilia 634/08; assay: Bactericidal activity (MBC); assay type: cell-based

Sequence of Human Serum Albumin (P02768 25-609): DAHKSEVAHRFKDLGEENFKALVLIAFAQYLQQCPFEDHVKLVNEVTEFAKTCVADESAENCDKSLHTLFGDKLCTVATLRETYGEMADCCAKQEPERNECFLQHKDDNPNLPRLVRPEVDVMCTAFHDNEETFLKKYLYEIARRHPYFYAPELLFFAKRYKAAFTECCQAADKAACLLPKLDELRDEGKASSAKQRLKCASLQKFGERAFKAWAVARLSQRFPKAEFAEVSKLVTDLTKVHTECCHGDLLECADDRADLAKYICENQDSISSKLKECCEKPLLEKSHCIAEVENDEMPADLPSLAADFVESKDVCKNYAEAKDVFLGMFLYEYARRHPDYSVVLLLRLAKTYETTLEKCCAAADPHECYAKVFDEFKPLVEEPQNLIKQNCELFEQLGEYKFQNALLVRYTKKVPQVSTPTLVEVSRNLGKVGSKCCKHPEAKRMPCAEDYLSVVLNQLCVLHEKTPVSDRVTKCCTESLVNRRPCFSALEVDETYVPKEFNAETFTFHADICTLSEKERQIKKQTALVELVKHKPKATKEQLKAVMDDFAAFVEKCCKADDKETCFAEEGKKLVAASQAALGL

N=C(N)NCCCCCCCCN(CCCCCCCCNC(=N)NCC1CC1)C(=O)N(CCCCCCCCNC(=N)N)CCCCCCCCNC(=N)NCC1CC1 [Compound 28, 1,3-bis(8-(3-(cyclopropylmethyl)guanidino)octyl)-1,3-bis(8-guanidinooctyl)urea]
MBC [1]: 64 µg/mL (≈ 75.7 µM)
intrinsic fluorescence decrease of HSA (Human Serum Albumin): scarce intrinsic fluorescence decrease
MBC [2]: 4 µg/mL (≈ 4.73 µM)
MBC (Escherichia coli CCUG^T): 1 µg/mL (≈ 1.18 µM)
MBC (Burkholderia cepacia RII): 8 µg/mL (≈ 9.46 µM)
MBC [3]: 1 µg/mL (≈ 1.18 µM)
MIC ([4]; Table 4, resistance profile PDR, read-out: MIC): 4 µg/mL (≈ 4.73 µM)
MIC ([4]; Tables 2 and 3, read-out: MIC): 2 µg/mL (≈ 2.37 µM)
MIC ([5]; Enterobacter cloacae VA-417/02 (VIM-4), Tables 2 and 3): 1 µg/mL (≈ 1.18 µM)
MIC ([5]; Table 4, Enterobacter cloacae VA-417/02, resistance profile PEN, CEPH, CARB, AG, FQ): 2 µg/mL (≈ 2.37 µM)
MIC ([6]; Acinetobacter baumannii AC-54/97 (IMP-2), Tables 2 and 3): 2 µg/mL (≈ 2.37 µM)
MIC ([6]; Table 4, Acinetobacter baumannii AC-54/97, resistance profile PEN, ES-CEPH, CARB, AZT, AG, FQ, FOS, SXT): 4 µg/mL (≈ 4.73 µM)
solubility at 24 h (Water solubility): 292 µg/mL (≈ 345 µM)
MBC [7]: 8 µg/mL (≈ 9.46 µM)
MBC [8]: 2 µg/mL (≈ 2.37 µM)
MBC [9]: 0.5 µg/mL (≈ 0.591 µM)
MIC [10]: 2 µg/mL (≈ 2.37 µM)
MIC [11]: 8 µg/mL (≈ 9.46 µM)
MBC [12]: 2 µg/mL (≈ 2.37 µM)
MBC [13]: 4 µg/mL (≈ 4.73 µM)
antimicrobial activity (in words) [14]: most active among the series
antimicrobial spectrum (in words) [14]: active against both Gram-positive and Gram-negative organisms
MBC [15]: 16 µg/mL (≈ 18.9 µM)
